Measurements from ChEMBL document CHEMBL3352625, “Development of novel neurokinin 3 receptor (NK3R) selective agonists with resistance to proteolytic degradation” (J Med Chem, 2014).
Blank lines part the entries; values can stand above or below the compound they belong to. Calls of active or inactive are those of the source. The rule behind the calls is not given here. Where a SMILES comes first, the peptide text is derived from it. [ ]: non-standard residue; d: D form. NMeF = CN[C@@H](Cc1ccccc1)C(=O)O

How the values were obtained:
Neuromedin-K receptor [1] = biological target: T1, Neuromedin-K receptor (Homo sapiens, UniProt P29371); assay: Displacement of [125I]His3, MePhe7 from human NK3R expressed in CHO cell membranes by scintillation counting
T1 sequence (P29371 whole entry): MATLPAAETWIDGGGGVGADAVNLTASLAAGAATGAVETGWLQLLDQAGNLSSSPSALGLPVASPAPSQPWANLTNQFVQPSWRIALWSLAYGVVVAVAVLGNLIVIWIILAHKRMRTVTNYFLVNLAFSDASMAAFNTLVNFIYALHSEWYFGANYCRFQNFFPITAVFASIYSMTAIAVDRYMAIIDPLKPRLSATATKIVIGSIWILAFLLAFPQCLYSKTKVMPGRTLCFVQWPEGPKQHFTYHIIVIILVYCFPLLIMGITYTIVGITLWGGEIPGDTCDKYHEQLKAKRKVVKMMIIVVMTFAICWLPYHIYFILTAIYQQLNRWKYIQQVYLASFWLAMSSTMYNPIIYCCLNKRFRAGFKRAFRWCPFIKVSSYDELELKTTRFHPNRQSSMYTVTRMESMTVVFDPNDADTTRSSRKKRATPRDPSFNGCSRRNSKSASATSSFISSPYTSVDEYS

Neuromedin-K receptor [2] = biological target: T1, Neuromedin-K receptor; assay: (§1) Agonist activity at human NK3R expressed in CHO cells assessed as induction of Ca2+ influx […]; format: functional, cell-based
[3] = biological target: Substance-P receptor (Homo sapiens) (UniProt P25103); assay: Displacement of [125I]-BH-SP from human NK1R expressed in CHO cell membranes at 10 uM by scintillation counting
Chain of Substance-P receptor (Homo sapiens) (P25103 whole entry): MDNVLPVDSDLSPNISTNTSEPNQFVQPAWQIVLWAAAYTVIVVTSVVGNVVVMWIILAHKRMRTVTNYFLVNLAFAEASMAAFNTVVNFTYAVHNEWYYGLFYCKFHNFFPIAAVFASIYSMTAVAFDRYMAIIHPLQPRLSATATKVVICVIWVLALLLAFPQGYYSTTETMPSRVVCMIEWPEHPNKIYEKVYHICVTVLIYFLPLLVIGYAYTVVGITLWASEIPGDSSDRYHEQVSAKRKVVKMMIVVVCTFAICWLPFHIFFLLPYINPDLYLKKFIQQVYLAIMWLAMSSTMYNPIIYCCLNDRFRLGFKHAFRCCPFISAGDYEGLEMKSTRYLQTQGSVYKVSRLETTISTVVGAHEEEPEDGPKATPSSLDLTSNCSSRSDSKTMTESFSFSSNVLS

[4] = biological target: T2, Substance-K receptor (Homo sapiens) (UniProt P21452); assay: Displacement of [125I]-NKA from […] expressed in CHO cell membranes at 10 uM by scintillation counting
T2 sequence (whole entry): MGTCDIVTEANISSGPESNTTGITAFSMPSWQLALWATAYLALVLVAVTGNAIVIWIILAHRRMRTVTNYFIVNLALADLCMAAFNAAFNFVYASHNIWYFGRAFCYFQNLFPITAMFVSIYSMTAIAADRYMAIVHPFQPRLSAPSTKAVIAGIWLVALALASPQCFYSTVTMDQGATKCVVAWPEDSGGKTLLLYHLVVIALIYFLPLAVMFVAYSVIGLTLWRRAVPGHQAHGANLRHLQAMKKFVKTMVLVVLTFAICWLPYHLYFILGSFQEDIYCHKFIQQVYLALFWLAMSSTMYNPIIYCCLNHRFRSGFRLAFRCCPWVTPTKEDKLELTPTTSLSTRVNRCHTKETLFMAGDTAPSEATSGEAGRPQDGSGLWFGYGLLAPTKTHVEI

Serum [5] = assay: Drug metabolism in cattle serum assessed as peptide H-His-Asp-Phe-Phe-MePhe-Gly-Leu-Met-NH2 formation by HPLC analysis; format: ADME, cell-free, Bos taurus
Serum [6] = assay: Drug metabolism in cattle serum assessed as peptide H-Asp-Phe-Phe-MePhe-Gly-Leu-Met-NH2 formation by HPLC analysis; format: ADME, cell-free, Bos taurus
Serum [7] = assay: Drug metabolism in cattle serum assessed as peptide H-Phe-MePhe-Gly-Leu-Met-NH2 formation by HPLC analysis; format: ADME, cell-free, Bos taurus
[8] = Drug metabolism in pig serum assessed as peptide H-His-Asp-Phe-Phe-MePhe-Gly-Leu-Met-NH2 formation by HPLC analysis; format: ADME, cell-free, Sus scrofa
[9] = Drug metabolism in pig serum assessed as peptide H-Asp-Phe-Phe-MePhe-Gly-Leu-Met-NH2 formation by HPLC analysis; format: ADME, cell-free, Sus scrofa
[10] = Drug metabolism in pig serum assessed as peptide H-Phe-MePhe-Gly-Leu-Met-NH2 formation by HPLC analysis; format: ADME, cell-free, Sus scrofa
[11] = Drug metabolism in goat serum assessed as peptide H-His-Asp-Phe-Phe-MePhe-Gly-Leu-Met-NH2 formation by HPLC analysis; format: ADME, cell-free, Capra hircus
[12] = Drug metabolism in goat serum assessed as peptide H-Asp-Phe-Phe-MePhe-Gly-Leu-Met-NH2 formation by HPLC analysis; format: ADME, cell-free, Capra hircus
[13] = Drug metabolism in goat serum assessed as peptide H-Phe-MePhe-Gly-Leu-Met-NH2 formation by HPLC analysis; format: ADME, cell-free, Capra hircus
Serum [14] = assay: Drug metabolism in rat serum assessed as H-His-Asp-Phe-Phe-MePhe-Gly-Leu-Met-NH2 2 formation by HPLC analysis; format: ADME, cell-free
Serum [15] = assay: Drug metabolism in rat serum assessed as peptide H-Asp-Phe-Phe-MePhe-Gly-Leu-Met-NH2 formation by HPLC analysis; format: ADME, cell-free
Serum [16] = assay: Drug metabolism in rat serum assessed as peptide H-Phe-MePhe-Gly-Leu-Met-NH2 formation by HPLC analysis; format: ADME, cell-free
Serum [17] = assay: Drug metabolism in rat serum assessed as peptide H-Phe-MePhe-Gly-Leu-Met-OH formation by HPLC analysis; format: ADME, cell-free
[18] = Drug metabolism in pig hypothalamic extract assessed as peptide H-Phe-MePhe-Gly-Leu-Met-NH2 formation by HPLC analysis; format: ADME, Sus scrofa, Hypothalamus
[19] = Drug metabolism in pig hypothalamic extract assessed as peptide H-Phe-MePhe-Gly-Leu-Met-OH formation by HPLC analysis; format: ADME, Sus scrofa, Hypothalamus
[20] = Drug metabolism in pig hypothalamic extract assessed as peptide H-Phe-MePhe-Gly-OH formation by HPLC analysis; format: ADME, Sus scrofa, Hypothalamus
[21] = Drug metabolism in pig hypothalamic extract assessed as peptide H-Met-His-Asp-Phe-Phe-MePhe-Gly-Leu-Met-NH2 formation by HPLC analysis; format: ADME, Sus scrofa, Hypothalamus
[22] = Drug metabolism in pig hypothalamic extract assessed as peptide H-His-Asp-Phe-Phe-MePhe-Gly-Leu-Met-NH2 formation by HPLC analysis; format: ADME, Sus scrofa, Hypothalamus
[23] = Drug metabolism in pig hypothalamic extract assessed as peptide H-Asp-Phe-Phe-MePhe-Gly-Leu-Met-NH2 formation by HPLC analysis; format: ADME, Sus scrofa, Hypothalamus
[24] = Drug metabolism in pig hypothalamic extract assessed as peptide H-Phe-Phe-MePhe-Gly-Leu-Met-NH2 formation by HPLC analysis; format: ADME, Sus scrofa, Hypothalamus
[25] = biological target: T3, Neuromedin-K receptor (Homo sapiens) (UniProt P29371); assay: as §1; format: functional, cell-based
T3 sequence (whole entry): T1 sequence (P29371 whole entry)

- IC50 (Neuromedin-K receptor [1]): 59 nM
- EC50 (Neuromedin-K receptor [2]): 91 nM
- inhibition [3]: 15%
- inhibition [4]: 73%
Structure (SMILES): CSCC[C@H](NC(=O)[C@H](CC(C)C)NC(=O)CNC(=O)[C@H](Cc1ccccc1)N(C)C(=O)[C@H](Cc1ccccc1)NC(=O)[C@H](Cc1ccccc1)NC(=O)[C@@H](N)CC(=O)O)C(N)=O (H-DFF[NMeF]GLM-NH2)

- IC50 (Neuromedin-K receptor [1]): 2900 nM
- EC50 (Neuromedin-K receptor [2]): 240 nM
- inhibition [3]: 49%
- inhibition [4]: 84%
Structure (SMILES): CSCC[C@H](NC(=O)[C@H](CC(C)C)NC(=O)CNC(=O)[C@H](Cc1ccccc1)N(C)C(=O)[C@H](Cc1ccccc1)NC(=O)[C@@H](N)Cc1ccccc1)C(N)=O (H-FF[NMeF]GLM-NH2)

- IC50 (Neuromedin-K receptor [1]): 2300 nM
- EC50 (Neuromedin-K receptor [2]): 350 nM
- inhibition [3]: 70%
- inhibition [4]: 77%
Structure (SMILES): CSCC[C@H](NC(=O)[C@H](CC(C)C)NC(=O)CNC(=O)[C@H](Cc1ccccc1)N(C)C(=O)[C@@H](N)Cc1ccccc1)C(N)=O (H-F[NMeF]GLM-NH2)

The next lines start with the compound.

Structure (SMILES): CSCC[C@H](NC(=O)[C@H](CC(C)C)NC(=O)CNC(=O)[C@H](Cc1ccccc1)N(C)C(=O)[C@H](Cc1ccccc1)NC(=O)[C@H](Cc1ccccc1)NC(=O)[C@H](CC(=O)O)NC(=O)[C@H](Cc1cnc[nH]1)NC(=O)[C@H](CCSC)NC(=O)[C@@H](N)CC(=O)O)C(N)=O (H-DMHDFF[NMeF]GLM-NH2)
- IC50 (Neuromedin-K receptor [1]): 12 nM
- EC50 (Neuromedin-K receptor [2]): 64 nM
- Drug metabolism (Serum [5]): metabolite_detected
- Drug metabolism (Serum [6]): metabolite_detected
- Drug metabolism (Serum [7]): metabolite_detected
- Drug metabolism [8]: metabolite_detected
- Drug metabolism [9]: metabolite_detected
- Drug metabolism [10]: metabolite_detected
- Drug metabolism [11]: metabolite_detected
- Drug metabolism [12]: metabolite_detected
- Drug metabolism [13]: metabolite_detected
- Drug metabolism (Serum [14]): metabolite_detected
- Drug metabolism (Serum [15]): metabolite_detected
- Drug metabolism (Serum [16]): metabolite_detected
- Drug metabolism (Serum [17]): metabolite_detected
- Drug metabolism [18]: metabolite_detected
- Drug metabolism [19]: metabolite_detected
- Drug metabolism [20]: metabolite_detected
- Drug metabolism [21]: metabolite_notdetected
- Drug metabolism [22]: metabolite_notdetected
- Drug metabolism [23]: metabolite_notdetected
- Drug metabolism [24]: metabolite_notdetected

Structure (SMILES): CSCC[C@H](NC(=O)[C@H](CC(C)C)NC(=O)CNC(=O)[C@H](Cc1ccccc1)N(C)C(=O)[C@@H](N)Cc1ccccc1)C(=O)O (H-F[NMeF]GLM-OH)
- EC50 (Neuromedin-K receptor [2]): > 100000 nM

Structure (SMILES): CSCC[C@H](NC(=O)[C@H](CC(C)C)NC(=O)CNC(=O)[C@H](Cc1ccccc1)N(C)C(=O)[C@H](Cc1ccccc1)NC(=O)[C@H](Cc1ccccc1)NC(=O)[C@H](CC(=O)O)NC(=O)[C@@H](N)Cc1cnc[nH]1)C(N)=O (H-HDFF[NMeF]GLM-NH2)
- IC50 (Neuromedin-K receptor [1]): 43 nM
- EC50 (Neuromedin-K receptor [2]): 280 nM
- inhibition [3]: 18%
- inhibition [4]: 74%

Structure (SMILES): CSCC[C@H](NC(=O)[C@@H](N)CC(C)C)C(N)=O (H-Leu-Met-NH2)
- Activity [25]: inactive
